Consider 2 compounds from patent publication US20150241429A1, “IRHOM2 INHIBITION FOR THE TREATMENT OF COMPLEMENT MEDIATED DISORDERS” (HOSPITAL FOR SPECIAL SURGERY, priority 2012, published 2015).

Test [1] has as its system macrophages. As to the kind of experiment: Phagocytosis of IgG-opsonized red blood cells by macrophages. As to conditions: inhibition of TACE with MM. The format is cell-based. The protocol: FIG. 5. (A) TACE-mediated cleavage of CD62L on the cell surface of freshly isolated human neutrophils (representative of 2 experiments). Surface expression of CD62L was assessed by flow cytometry following stimulation with 1 μg/mL of C5a or 25 ng/mL PMA for 20 min in the presence or absence of Marimastat (MM). […] Opsonized sheep red blood cells were stained with CFSE and total fluorescence intensity (TFI) was measured by flow cytometry, n=3, mean+/−SEM; * indicates p>0.05. (C) Release of reactive oxygen species by human monocytes when stimulated with C5a in the presence or absence of Marimastat. ROS was quantified by FACS by measuring the mean intensity of the ROS-reactive dye DHR. […] The Fc domains of pathogenic IgG initiate tissue damage by binding FcγR on effector cells and by activating complement, and FcγRs are critical for the pathogenesis of inflammatory arthritis in the K/B×N serum model (Ji et al., 2002a).

The subject of test [2] is human monocytes. As to the kind of experiment: C5a-stimulated oxidative burst (ROS release) in human monocytes. In kind it is cell-based. As to conditions: C5a in presence or absence of Marimastat, ROS by FACS (DHR). As for the experimental part: FIG. 5. (A) TACE-mediated cleavage of CD62L on the cell surface of freshly isolated human neutrophils (representative of 2 experiments). Surface expression of CD62L was assessed by flow cytometry following stimulation with 1 μg/mL of C5a or 25 ng/mL PMA for 20 min in the presence or absence of Marimastat (MM). (B) Quantification of total sheep red blood cells phagocytosed by wild type or Tace−/− bone marrow macrophages. Opsonized sheep red blood cells were stained with CFSE and total fluorescence intensity (TFI) was measured by flow cytometry, n=3, mean+/−SEM; * indicates p>0.05. (C) Release of reactive oxygen species by human monocytes when stimulated with C5a in the presence or absence of Marimastat. ROS was quantified by FACS by measuring the mean intensity of the ROS-reactive dye DHR. […] The Fc domains of pathogenic IgG initiate tissue damage by binding FcγR on effector cells and by activating complement, and FcγRs are critical for the pathogenesis of inflammatory arthritis in the K/B×N serum model (Ji et al., 2002a).
On the technique in general: Flow cytometry measures light scatter and fluorescence of single cells or particles in a stream.

Test [3] deals with iRhom2. Put plainly: iRhom2 expression in ex vivo cultures of RA synovial macrophages. In kind it is cell-based, human. As to conditions: RA synovial macrophages incubated overnight ± etanercept, n=8. The protocol: FIG. 2. Production of TNFα and other pro-inflammatory molecules is enhanced by TNFα shedding. (A) Quantification of mRNA levels of the indicated genes by qPCR following 30 min pre-treatment with 10 μg/ml etanercept and stimulation with C5a (representative of 3 experiments). (B) qPCR of iRhom2 mRNA in human monocytes treated for the indicated time periods with hTNFα (representative of 4 experiments). (C) Relative iRhom2 expression in RA synovial macrophages compared to macrophages from normal control patients, n=7 for control, and n=8 for RA patients (Nonparametric Mann-Whitney U test) (Gordon et al., 2012). (D) iRhom2 expression in synovial macrophages from RA patients following incubation overnight±etanercept, shown as percent of expression in freshly isolated cells, n=8. […] (F) Decreased TNFα release from C5a, IC and IC+C5a-stimulated cells treated with iR2 siRNA or TACE siRNA compared to untreated controls (representative of 3 independent experiments, mean±s.d. of samples stimulated in duplicates). *: p<0.05.
This, in turn, would also reduce the production of TNFα-dependent cytokines and of iRhom2, a crucial positive regulator of TACE (Adrain et al., 2012; McIlwain et al., 2012; Siggs et al., 2012).

As to `CNC(=O)[C@@H](NC(=O)[C@H](CC(C)C)[C@H](O)C(=O)NO)C(C)(C)C` [MM, Marimastat], the “opsonization (internalization of IgG-opsonized red blood cells)” value in test [1] is reported as “did not alter”. The C5a-stimulated oxidative burst result in test [2] is on record as “did not alter”.

For etanercept, in test [3], the iRhom2 expression result is given as “substantially reduced”.
